# Test results from US4471131A, “Novel silyl esters of N-phosphonomethylglycine” (Monsanto Company, priority 1983, dated 1984).
# Legend:
# Test in all cases: post-emergence herbicidal activity, greenhouse
# Format in all cases: in vivo
# [1] = system: Barnyardgrass; settings: formulated in anhydrous tetrahydrofuran
# Excerpt: (§1) A good grade of top soil is placed in aluminum pans having holes in the bottom and compacted to a depth of 0.95 to 1.27 cm. from the top of the pan. A predetermined number of seeds of each of several dicotyledonous and moncotyledonous annual plant species and/or vegetative propagules for the perennial plant species were placed on the soil and pressed into the soil surface. The seeds and/or vegetative propagules are covered with soil and leveled. The pans are then placed on a sand bench in the greenhouse and watered from below as needed. After the plants reach the desired age (two to three weeks), each pan, except for the control pans, is removed individually to a spraying chamber and sprayed by means of an atomizer at the rates noted. In the spray solution is an amount of an emulsifying agent mixture to give a spray solution or suspension which contains about 0.4% by weight of the emulsifier. The spray solution or suspension contains a sufficient amount of the candidate chemical in order to give application rates corresponding to those set forth in the tables. The pans were returned to the greenhouse and watered as before and the injury to the plants as compared to the control is observed at approximately two and four weeks and the results recorded. In the tables, WAT means "weeks after treatment."
# (§2) The post-emergent herbicidal activity index used in Tables II and III is as follows:
# (§3) The plant species utilized in these tests are identified by letter in accordance with the following legend: […]
# [2] = system: Canada Thistle; settings: Table II, formulated in anhydrous tetrahydrofuran
# Excerpt: as §1, §2, §3
# [3] = system: Cocklebur; settings: formulated in anhydrous tetrahydrofuran
# Excerpt: as §1, §2, §3
# [4] = system: Common Lambsquarters; settings: formulated in anhydrous tetrahydrofuran
# Excerpt: as §1, §2, §3
# [5] = system: Downy Brome; settings: formulated in anhydrous tetrahydrofuran
# Excerpt: as §1, §2, §3
# [6] = system: Hemp Sesbania; settings: Table III, formulated in anhydrous tetrahydrofuran
# Excerpt: as §1, §2, §3
# [7] = system: Johnsongrass; settings: Table II, formulated in anhydrous tetrahydrofuran
# Excerpt: as §1, §2, §3
# [8] = system: Large Crabgrass; settings: Table III, formulated in anhydrous tetrahydrofuran
# Excerpt: as §1, §2, §3
# [9] = system: Morningglory; settings: Table II, formulated in anhydrous tetrahydrofuran
# Excerpt: as §1, §2, §3
smiles,measurement,setting,value
"CCCCOC(=O)CNCP(=O)(O)O[Si](C)(C)C(C)(C)C [Ex. 3, Glycine, N-((([(1,1-Dimethylethyl)Dimethylsilyl]oxy)Hydroxyphosphinyl)Methyl)-, Butyl Ester]",Plant Response Index (K),"[1]; Table II, 2 WAT, 5.6 kg/h",2 (50-74% inhibition)
same,Plant Response Index (K),"[1]; Table II, 2 WAT, 11.2 kg/h",2 (50-74% inhibition)
same,Plant Response Index (K),"[1]; Table II, 4 WAT, 5.6 kg/h",2 (50-74% inhibition)
same,Plant Response Index (K),"[1]; Table II, 4 WAT, 11.2 kg/h",3 (75-99% inhibition)
same,Plant Response Index (K),"[1]; Table III, 2 WAT, 1.1 kg/h",2 (50-74% inhibition)
same,Plant Response Index (K),"[1]; Table III, 2 WAT, 5.6 kg/h",2 (50-74% inhibition)
same,Plant Response Index (K),"[1]; Table III, 2 WAT, .28 kg/h",1 (25-49% inhibition)
same,Plant Response Index (K),"[1]; Table III, 4 WAT, 1.1 kg/h",2 (50-74% inhibition)
same,Plant Response Index (K),"[1]; Table III, 4 WAT, 5.6 kg/h",3 (75-99% inhibition)
same,Plant Response Index (K),"[1]; Table III, 4 WAT, .28 kg/h",1 (25-49% inhibition)
same,Plant Response Index (A),"[2]; 2 WAT, 5.6 kg/h",1 (25-49% inhibition)
same,Plant Response Index (A),"[2]; 2 WAT, 11.2 kg/h",1 (25-49% inhibition)
same,Plant Response Index (A),"[2]; 4 WAT, 5.6 kg/h",1 (25-49% inhibition)
same,Plant Response Index (A),"[2]; 4 WAT, 11.2 kg/h",2 (50-74% inhibition)
same,Plant Response Index (B),"[3]; Table II, 2 WAT, 5.6 kg/h",1 (25-49% inhibition)
same,Plant Response Index (B),"[3]; Table II, 2 WAT, 11.2 kg/h",1 (25-49% inhibition)
same,Plant Response Index (B),"[3]; Table II, 4 WAT, 5.6 kg/h",1 (25-49% inhibition)
same,Plant Response Index (B),"[3]; Table II, 4 WAT, 11.2 kg/h",2 (50-74% inhibition)
same,Plant Response Index (B),"[3]; Table III, 2 WAT, 1.1 kg/h",2 (50-74% inhibition)
same,Plant Response Index (B),"[3]; Table III, 2 WAT, 5.6 kg/h",2 (50-74% inhibition)
same,Plant Response Index (B),"[3]; Table III, 2 WAT, .28 kg/h",2 (50-74% inhibition)
same,Plant Response Index (B),"[3]; Table III, 4 WAT, 1.1 kg/h",1 (25-49% inhibition)
same,Plant Response Index (B),"[3]; Table III, 4 WAT, 5.6 kg/h",3 (75-99% inhibition)
same,Plant Response Index (B),"[3]; Table III, 4 WAT, .28 kg/h",1 (25-49% inhibition)
same,Plant Response Index (E),"[4]; Table II, 2 WAT, 5.6 kg/h",3 (75-99% inhibition)
same,Plant Response Index (E),"[4]; Table II, 2 WAT, 11.2 kg/h",3 (75-99% inhibition)
same,Plant Response Index (E),"[4]; Table II, 4 WAT, 5.6 kg/h",4 (100% inhibition)
same,Plant Response Index (E),"[4]; Table II, 4 WAT, 11.2 kg/h",4 (100% inhibition)
same,Plant Response Index (E),"[4]; Table III, 2 WAT, 1.1 kg/h",3 (75-99% inhibition)
same,Plant Response Index (E),"[4]; Table III, 2 WAT, 5.6 kg/h",4 (100% inhibition)
same,Plant Response Index (E),"[4]; Table III, 2 WAT, .28 kg/h",3 (75-99% inhibition)
same,Plant Response Index (E),"[4]; Table III, 4 WAT, 1.1 kg/h",3 (75-99% inhibition)
same,Plant Response Index (E),"[4]; Table III, 4 WAT, 5.6 kg/h",4 (100% inhibition)
same,Plant Response Index (E),"[4]; Table III, 4 WAT, .28 kg/h",4 (100% inhibition)
same,Plant Response Index (J),"[5]; Table II, 2 WAT, 5.6 kg/h",0 (0-24% inhibition)
same,Plant Response Index (J),"[5]; Table II, 2 WAT, 11.2 kg/h",0 (0-24% inhibition)
same,Plant Response Index (J),"[5]; Table II, 4 WAT, 5.6 kg/h",1 (25-49% inhibition)
same,Plant Response Index (J),"[5]; Table II, 4 WAT, 11.2 kg/h",1 (25-49% inhibition)
same,Plant Response Index (J),"[5]; Table III, 2 WAT, 1.1 kg/h",1 (25-49% inhibition)
same,Plant Response Index (J),"[5]; Table III, 2 WAT, 5.6 kg/h",1 (25-49% inhibition)
same,Plant Response Index (J),"[5]; Table III, 2 WAT, .28 kg/h",1 (25-49% inhibition)
same,Plant Response Index (J),"[5]; Table III, 4 WAT, 1.1 kg/h",1 (25-49% inhibition)
same,Plant Response Index (J),"[5]; Table III, 4 WAT, 5.6 kg/h",1 (25-49% inhibition)
same,Plant Response Index (J),"[5]; Table III, 4 WAT, .28 kg/h",0 (0-24% inhibition)
same,Plant Response Index (R),"[6]; 2 WAT, 1.1 kg/h",1 (25-49% inhibition)
same,Plant Response Index (R),"[6]; 2 WAT, 5.6 kg/h",4 (100% inhibition)
same,Plant Response Index (R),"[6]; 2 WAT, .28 kg/h",1 (25-49% inhibition)
same,Plant Response Index (R),"[6]; 4 WAT, 1.1 kg/h",1 (25-49% inhibition)
same,Plant Response Index (R),"[6]; 4 WAT, 5.6 kg/h",4 (100% inhibition)
same,Plant Response Index (R),"[6]; 4 WAT, .28 kg/h",0 (0-24% inhibition)
same,Plant Response Index (I),"[7]; 2 WAT, 5.6 kg/h",0 (0-24% inhibition)
same,Plant Response Index (I),"[7]; 2 WAT, 11.2 kg/h",1 (25-49% inhibition)
same,Plant Response Index (I),"[7]; 4 WAT, 5.6 kg/h",1 (25-49% inhibition)
same,Plant Response Index (I),"[7]; 4 WAT, 11.2 kg/h",2 (50-74% inhibition)
same,Plant Response Index (T),"[8]; 2 WAT, 1.1 kg/h",3 (75-99% inhibition)
same,Plant Response Index (T),"[8]; 2 WAT, 5.6 kg/h",4 (100% inhibition)
same,Plant Response Index (T),"[8]; 2 WAT, .28 kg/h",3 (75-99% inhibition)
same,Plant Response Index (T),"[8]; 4 WAT, 1.1 kg/h",4 (100% inhibition)
same,Plant Response Index (T),"[8]; 4 WAT, 5.6 kg/h",4 (100% inhibition)
same,Plant Response Index (T),"[8]; 4 WAT, .28 kg/h",4 (100% inhibition)
same,Plant Response Index (D),"[9]; 2 WAT, 5.6 kg/h",1 (25-49% inhibition)
same,Plant Response Index (D),"[9]; 2 WAT, 11.2 kg/h",1 (25-49% inhibition)
same,Plant Response Index (D),"[9]; 4 WAT, 5.6 kg/h",1 (25-49% inhibition)
same,Plant Response Index (D),"[9]; 4 WAT, 11.2 kg/h",2 (50-74% inhibition)
